“Also recorded” adds a separate entry of the source.
Tests used:
BxPC3 cells = assay: TMR-DEX macropinosome uptake assay; type: cell-based, human; details: WT and IKKα KO BxPC3 cells (WT KRAS), ML385 10 μM, 24 hrs
[1] = test system: 1305 primary human PDAC cells; assay: Cell viability assay (CCK-8); type: cell-based; details: IKKα^low 1305 cells, 3 days
Protocol: In some embodiments, cells were plated in 96-well plates coated with or without ECM at a density of 3000 cells (MIA PaCa-2, 1444, 1305, COLO 357/FG) or 1500 cells (KC6141) per well and incubated overnight prior to treatment. EIPA (10.5 μM), IPI549 (600 nM), MBQ-167 (500 nM), MRT68921 (600 nM) or erlotinib (2 μM, Sigma), ML385 (10 μM, Sigma), HCQ (10 μM or 80 μM) or their combinations were added to the wells for 24, 72 or 96 hrs. Next, 10 μL of CCK-8 was added to each well. The optical density was read at 450 nm using a microplate reader (FilterMax F5, Molecular Devices, USA) at day 0, 1, 2, 3, and 4. For glutamine-deprivation assays, cells in 96-well plates were rinsed briefly in PBS and incubated in the 0.2 mM glutamine. Glutamine-free DMEM medium was supplemented with 0.2 mM glutamine in the presence of 10% dialyzed FBS and 25 mM HEPES. For glucose-deprivation assays, cells in 96-well plates were rinsed briefly in PBS and incubated in the 0.5 mM glucose. Glucose-free DMEM medium was supplemented with 0.5 mM glucose in the presence of 10% dialyzed FBS and 25 mM HEPES. For some conditions, the medium was supplemented with a final concentration of 2% BSA (Fraction V, fatty-acid-, nuclease and protease-free, Calbiochem). For all experiments, media were replaced every 24 hrs. Viable cell counts were obtained using CCK-8 assay described as above.

MP-related proteins = assay: Immunoblot of MP-related proteins in BxPC3 cells; type: cell-based, human; details: WT and IKKα KO BxPC3 cells, ML385 10 μM, 24 hrs
Protocol: (§1) Immunoblot and immunoprecipitation. Cells were harvested and lysed in RIPA buffer (50 mM Tris-HCl, pH 7.4, 150 mM NaCl, 1% Triton X-100, 1% Na deoxycholate, 0.1% SDS, 1 mM EDTA) supplemented with complete protease inhibitor cocktail. Proteins were resolved on SDS-polyacrylamide gels, and then transferred to a polyvinylidene difluoride membrane. After blocking with 5% (w/v) fat free milk, the membrane was stained with the corresponding primary antibodies followed by incubation with the appropriate secondary HRP-conjugated antibodies, and development with ECL. Immunoreactive bands were detected by automatic X-ray film processor or KwikQuant Imager.

MIA PaCa-2 cells = assay: Immunoblot of p62 and LC3 (autophagic degradation); type: cell-based, human; details: IKKα-deficient (KD) MIA PaCa-2 cells, normal or starvation medium 2 hrs, +/- CQ
Protocol: as §1, with “Autophagy Induction. […] For starvation, cells were incubated in starvation medium (20 mM HEPES pH 7.4, 140 mM NaCl, 1 mM CaC2, 1 mM MgCl2, and 1% BSA) for 1.5 or 2 hrs. For glucose starvation, cells were washed three times with PBS and incubated in glucose-free DMEM containing 10% dialyzed FBS for 4 hrs. Immunoblot” for “Immunoblot”

COLO 357/FG cells = assay: LC3 puncta and p62/LC3 immunoblot; type: cell-based, human; details: IKKα^low COLO 357/FG cells, normal or starvation medium 2 hrs, +/- CQ
Protocol: Autophagy Induction. […] For starvation, cells were incubated in starvation medium (20 mM HEPES pH 7.4, 140 mM NaCl, 1 mM CaC2, 1 mM MgCl2, and 1% BSA) for 1.5 or 2 hrs. For glucose starvation, cells were washed three times with PBS and incubated in glucose-free DMEM containing 10% dialyzed FBS for 4 hrs.
as §1
Data are presented as mean±SEM.

SMILES | TMR-DEX uptake increased by IKKα ablation (BxPC3 cells) | sensitivity to single agent (cell viability) [1] | MP-related protein expression increased by IKKα ablation (MP-related proteins) | p62 and LC3-II levels (MIA PaCa-2 cells) | LC3 puncta, LC3 lipidation and p62 on starvation (COLO 357/FG cells) | LC3 puncta, LC3 lipidation and p62 on starvation (COLO 357/FG cells; listed as chloroquine)
Cc1ccccc1C(=O)N1CCc2cc(-c3nc(NC(=O)Cc4ccc5c(c4)OCO5)sc3C)ccc21 [ML385] | blocked this effect | very sensitive | blocked this effect |  |  | 
CCN(CC)CCCC(C)Nc1ccnc2cc(Cl)ccc12 (stereo not drawn) [CQ, chloroquine] |  |  |  | did not increase p62 and LC3-II; also recorded: failed to increase p62 and LC3-II | not affected | no effect

From patent US12458630B2, “Combination therapy for cancer” (The Regents of the University of California, priority 2020, dated 2025)
